In US20250114338A1, “TETRAHYDRO-PYRIDO[3,4-b]INDOLE ESTROGEN RECEPTOR MODULATORS AND USES THEREOF” (Genentech, Inc., priority 2014, published 2025):

Tested on: ER-alpha MCF7
Experiment: ER-alpha MCF7 HCS EC50; stated as measured by in vitro cell proliferation assays of Examples 902 and 903
Format: cell-based
Settings: Homo sapiens, MCF7, MCF7 cells; Table 2
Description: The CellTiter-Glo® Luminescent Cell Viability Assay is a homogeneous method to determine the number of viable cells in culture based on quantitation of the ATP present, which signals the presence of metabolically active cells. The CellTiter-Glo® Assay is designed for use with multiwell plate formats, making it ideal for automated high-throughput screening (HTS), cell proliferation and cytotoxicity assays. The homogeneous assay procedure involves adding a single reagent (CellTiter-Glo® Reagent) directly to cells cultured in serum-supplemented medium. Cell washing, removal of medium or multiple pipetting steps are not required. The Cell Titer-Glo® Luminescent Cell Viability Assay, including reagents and protocol are commercially available (Promega Corp., Madison, WI, Technical Bulletin TB288).
The assay assesses the ability of compounds to enter cells and inhibit cell proliferation. The assay principle is based on the determination of the number of viable cells present by quantitating the ATP present in a homogenous assay where addition of the Cell Titer-Glo® reagent results in cell lysis and generation of a luminescent signal through the luciferase reaction. The luminescent signal is proportional to the amount of ATP present.
Cell Culture Medium: RPMI or DMEM high glucose, 10% Fetal Bovine Serum, 2 mM L-Glutamine, P/S. Incubate O/N (overnight) at 37° C., 5% CO2.
Day 2—Add Drug to Cells, Compound Dilution, DMSO Plates (serial 1:2 for 9 points). Add 20 μl of compound at 10 mM in the 2nd column of 96 well plate. […] Add 147 μl of Media into all wells. Transfer 3 μl of DMSO+ compound from each well in the DMSO Plate to each corresponding well on Media Plate using Rapidplate® (Caliper, a Perkin-Elmer Co.). For 2 drug combination studies, transfer one drug 1.5 μl of DMSO+ compound from each well in the DMSO Plate to each corresponding well on Media Plate using Rapidplate. Then, transfer another drug 1.5 μl to the medium plate.
Drug Addition to Cells, Cell Plate (1:10 dilution): Add 6 μl of media+ compound directly to cells (54 μl of media on the cells already). Incubate 3 days at 37° C., 5% CO2 in an incubator that will not be opened often.
Day 5—Develop Plates, Thaw Cell Titer Glo Buffer at room temperature: Remove Cell Plates from 37° C. and equilibrate to room temperature for about 30 minutes. Add Cell Titer-Glo® Buffer to Cell Titer-Glo® Substrate (bottle to bottle). Add 30 μl Cell Titer-Glo® Reagent (Promega cat. #G7572) to each well of cells. Place on plate shaker for about 30 minutes. Read luminescence on Analyst HT Plate Reader (half second per well).
Cell viability assays and combination assays: Cells were seeded at 1000-2000 cells/well in 384-well plates for 16 h. On day two, nine serial 1:2 compound dilutions were made in DMSO in a 96 well plate. The compounds were further diluted into growth media using a Rapidplate® robot (Zymark Corp., Hopkinton, MA). The diluted compounds were then added to quadruplicate wells in 384-well cell plates and incubated at 37° C. and 5% CO2. After 4 days, relative numbers of viable cells were measured by luminescence using Cell Titer-Glo® (Promega) according to the manufacturer's instructions and read on a Wallac Multilabel Reader® (PerkinElmer, Foster City). EC50 values were calculated using Prism® 4.0 software (GraphPad, San Diego).
5 ul of each individual compound concentration and each control compound was transferred to the cell plate. Fulvestrant was added to control wells at a final concentration of 100 nM). DMSO was added to negative control wells (0.2% v/v).

Row | SMILES | EC50 [nM]
1 | C[C@@H]1Cc2c([nH]c3ccccc23)[C@@H](c2c(F)cc(OC3CN(CC4CCCC4)C3)cc2F)N1CC(C)(C)F [Example 165, (1R,3R)-1-[4-[1-(cyclopentylmethyl)azetidin-3-yl]oxy-2,6-difluoro-phenyl]-2-(2-fluoro-2-methyl-propyl)-3-methyl-1,3,4,9-tetrahydropyrido[3,4-b]indole] | 2
2 | C[C@@H]1Cc2c([nH]c3ccccc23)[C@@H](c2c(F)cc(OC3CN(CCF)C3)cc2F)N1CC(C)(C)F [Example 166, (1R,3R)-1-[2,6-difluoro-4-[1-(2-fluoroethyl)azetidin-3-yl]oxy-phenyl]-2-(2-fluoro-2-methyl-propyl)-3-methyl-1,3,4,9-tetrahydropyrido[3,4-b]indole] | 0.175
3 | C#CCN1CC(Oc2cc(F)c([C@@H]3c4[nH]c5ccccc5c4C[C@@H](C)N3CC(C)(C)F)c(F)c2)C1 [Example 167, (1R,3R)-1-[2,6-difluoro-4-(1-prop-2-ynylazetidin-3-yl)oxy-phenyl]-2-(2-fluoro-2-methyl-propyl)-3-methyl-1,3,4,9-tetrahydropyrido[3,4-b]indole] | 0.083
4 | CC(C)N1CC(Oc2cc(F)c([C@@H]3c4[nH]c5ccccc5c4C[C@@H](C)N3CC(C)(C)F)c(F)c2)C1 [Example 168, (1R,3R)-1-[2,6-difluoro-4-(1-isopropylazetidin-3-yl)oxy-phenyl]-2-(2-fluoro-2-methyl-propyl)-3-methyl-1,3,4,9-tetrahydropyrido[3,4-b]indole] | 0.122
5 | CC(C)CN1CC(Oc2cc(F)c([C@@H]3c4[nH]c5ccccc5c4C[C@@H](C)N3CC(C)(C)F)c(F)c2)C1 [Example 169, (1R,3R)-1-[2,6-difluoro-4-(1-isobutylazetidin-3-yl)oxy-phenyl]-2-(2-fluoro-2-methyl-propyl)-3-methyl-1,3,4,9-tetrahydropyrido[3,4-b]indole] | 0.409
6 | C[C@@H]1Cc2c([nH]c3ccccc23)[C@@H](c2c(F)cc(OC3CN(C(=O)OC(C)(C)C)C3)cc2F)N1CC(C)(C)F [Example 170, tert-butyl 3-[3,5-difluoro-4-[(1R,3R)-2-(2-fluoro-2-methyl-propyl)-3-methyl-1,3,4,9-tetrahydropyrido[3,4-b]indol-1-yl]phenoxy]azetidine-1-carboxylate] | 1
7 | CC[C@@H]1Cc2c([nH]c3ccccc23)[C@@H](c2c(F)cc(OCCN3CC(CF)C3)cc2F)N1CC(C)(C)F [Example 171, (1R,3R)-1-(2,6-difluoro-4-(2-(3-(fluoromethyl)azetidin-1-yl)ethoxy)phenyl)-3-ethyl-2-(2-fluoro-2-methylpropyl)-2,3,4,9-tetrahydro-1H-pyrido[3,4-b]indole] | 0.471
8 | CC[C@H]1Cc2c([nH]c3ccccc23)[C@@H](c2c(F)cc(OCCN3CC(CF)C3)cc2F)N1CC(C)(C)F [Example 172, (1R,3S)-1-(2,6-difluoro-4-(2-(3-(fluoromethyl)azetidin-1-yl)ethoxy)phenyl)-3-ethyl-2-(2-fluoro-2-methylpropyl)-2,3,4,9-tetrahydro-1H-pyrido[3,4-b]indole] | 17
9 | C[C@@H]1Cc2c([nH]c3ccccc23)[C@@H](c2c(F)cc(OCCN3CC(CF)C3)cc2F)N1CC1(C)CCC1 [Example 173, (1R,3R)-1-[2,6-difluoro-4-[2-[3-(fluoromethyl)azetidin-1-yl]ethoxy]phenyl]-3-methyl-2-[(1-methylcyclobutyl)methyl]-1,3,4,9-tetrahydropyrido[3,4-b]indole] | 1
10 | C[C@@H]1Cc2c([nH]c3ccccc23)[C@@H](c2c(F)cc(OCCN3CC(CF)C3)cc2F)N1CC(F)(F)F [Example 174, (1R,3R)-1-[2,6-difluoro-4-[2-[3-(fluoromethyl)azetidin-1-yl]ethoxy]phenyl]-3-methyl-2-(2,2,2-trifluoroethyl)-1,3,4,9-tetrahydropyrido[3,4-b]indole] | 0.285
11 | C[C@@H]1Cc2c([nH]c3ccccc23)[C@H](c2c(F)cc(OCCN3CC(CF)C3)cc2F)N1CC(F)(F)F [Example 175, (1S,3R)-1-[2,6-difluoro-4-[2-[3-(fluoromethyl)azetidin-1-yl]ethoxy]phenyl]-3-methyl-2-(2,2,2-trifluoroethyl)-1,3,4,9-tetrahydropyrido[3,4-b]indole] | 14

Continued, values first:

Row | EC50 [nM] | SMILES
12 | 0.031 | COC(CCN1CC(Oc2cc(F)c([C@@H]3c4[nH]c5ccccc5c4C[C@@H](C)N3CC(C)(C)F)c(F)c2)C1)OC [Example 176, (1R,3R)-1-[4-[1-(3,3-dimethoxypropyl)azetidin-3-yl]oxy-2,6-difluoro-phenyl]-2-(2-fluoro-2-methyl-propyl)-3-methyl-1,3,4,9-tetrahydropyrido[3,4-b]indole]
13 | 0.164 | C[C@@H]1Cc2c([nH]c3ccccc23)[C@@H](c2ccc(OC3CN(CCCF)C3)cc2F)N1CC(C)(C)F [Example 177, (1R,3R)-1-[2-fluoro-4-[1-(3-fluoropropyl)azetidin-3-yl]oxy-phenyl]-2-(2-fluoro-2-methyl-propyl)-3-methyl-1,3,4,9-tetrahydropyrido[3,4-b]indole]
14 | 0.5 | CC(C)(F)CN1CCc2c([nH]c3ccccc23)C1c1c(F)cc(OCCN2CC(CF)C2)cc1F (stereo not drawn) [Example 178, 1-[2,6-difluoro-4-[2-[3-(fluoromethyl)azetidin-1-yl]ethoxy]phenyl]-2-(2-fluoro-2-methyl-propyl)-1,3,4,9-tetrahydropyrido[3,4-b]indole]
15 | 13 | C[C@@H]1Cc2c([nH]c3ccccc23)[C@H](c2ccc(OCCN3CC(CF)C3)cc2)N1S(C)(=O)=O [Example 179, (1S,3R)-1-[4-[2-[3-(fluoromethyl)azetidin-1-yl]ethoxy]phenyl]-3-methyl-2-methylsulfonyl-1,3,4,9-tetrahydropyrido[3,4-b]indole]
16 | 0.222 | C[C@@H]1Cc2c([nH]c3ccccc23)[C@@H](c2ccc(OCCN3CC(CF)C3)cc2)N1S(C)(=O)=O [Example 180, (1R,3R)-1-(4-(2-(3-(fluoromethyl)azetidin-1-yl)ethoxy)phenyl)-3-methyl-2-(methylsulfonyl)-2,3,4,9-tetrahydro-1H-pyrido[3,4-b]indole]
17 | 4 | CC(CO)C(=O)N1[C@H](c2c(F)cc(OCCN3CC(CF)C3)cc2F)c2[nH]c3ccccc3c2C[C@H]1C (stereo partly drawn) [Example 181, 1-((1R,3R)-1-(2,6-difluoro-4-(2-(3-(fluoromethyl)azetidin-1-yl)ethoxy)phenyl)-3-methyl-3,4-dihydro-1H-pyrido[3,4-b]indol-2(9H)-yl)-3-hydroxy-2-methylpropan-1-one]
18 | > 100 | C[C@@H]1Cc2c([nH]c3ccccc23)[C@@H](c2c(F)cc(OCCN3CC(CF)C3)cc2F)N1C(=O)C1CNC1 [Example 182, azetidin-3-yl-[(1R,3R)-1-[2,6-difluoro-4-[2-[3-(fluoromethyl)azetidin-1-yl]ethoxy]phenyl]-3-methyl-1,3,4,9-tetrahydropyrido[3,4-b]indol-2-yl] methanone]
19 | 4 | C[C@@H]1Cc2c([nH]c3ccccc23)[C@@H](c2c(F)cc(OCCN3CC(CF)C3)cc2F)N1C(=O)C1CC1F (stereo partly drawn) [Example 183, ((1R,3R)-1-(2,6-difluoro-4-(2-(3-(fluoromethyl)azetidin-1-yl)ethoxy)phenyl)-3-methyl-3,4-dihydro-1H-pyrido[3,4-b]indol-2(9H)-yl)(2-fluorocyclopropyl)methanone]
20 | 0.494 | C[C@@H]1CCN([C@@H](C)COc2cc(F)c([C@@H]3c4[nH]c5ccccc5c4C[C@@H](C)N3CC(C)(C)F)c(F)c2)C1 [Example 184]
21 | 14 | C[C@@H]1Cc2c([nH]c3ccccc23)[C@@H](c2c(F)cc(OCCN3CC(CF)C3)cc2F)N1C(=O)c1ccccc1 [Example 185, [(1R,3R)-1-[2,6-difluoro-4-[2-[3-(fluoromethyl)azetidin-1-yl]ethoxy]phenyl]-3-methyl-1,3,4,9-tetrahydropyrido[3,4-b]indol-2-yl]-phenyl-methanone]
